16 compounds from US10870652B2, “Compounds and methods for modulating bruton's tyrosine kinase” (CORVUS PHARMACEUTICALS, INC., priority 2016, dated 2020) can be followed below.

By IC50 is commonly meant the concentration that gives 50% inhibition. A lower IC50 goes with inhibition by little substance.

Some results are limits rather than exact numbers.

What all share (type): biochemical
Assay [1] deals with T1, ITK (Homo sapiens, UniProt Q08881).
T1 sequence (Q08881 1-620): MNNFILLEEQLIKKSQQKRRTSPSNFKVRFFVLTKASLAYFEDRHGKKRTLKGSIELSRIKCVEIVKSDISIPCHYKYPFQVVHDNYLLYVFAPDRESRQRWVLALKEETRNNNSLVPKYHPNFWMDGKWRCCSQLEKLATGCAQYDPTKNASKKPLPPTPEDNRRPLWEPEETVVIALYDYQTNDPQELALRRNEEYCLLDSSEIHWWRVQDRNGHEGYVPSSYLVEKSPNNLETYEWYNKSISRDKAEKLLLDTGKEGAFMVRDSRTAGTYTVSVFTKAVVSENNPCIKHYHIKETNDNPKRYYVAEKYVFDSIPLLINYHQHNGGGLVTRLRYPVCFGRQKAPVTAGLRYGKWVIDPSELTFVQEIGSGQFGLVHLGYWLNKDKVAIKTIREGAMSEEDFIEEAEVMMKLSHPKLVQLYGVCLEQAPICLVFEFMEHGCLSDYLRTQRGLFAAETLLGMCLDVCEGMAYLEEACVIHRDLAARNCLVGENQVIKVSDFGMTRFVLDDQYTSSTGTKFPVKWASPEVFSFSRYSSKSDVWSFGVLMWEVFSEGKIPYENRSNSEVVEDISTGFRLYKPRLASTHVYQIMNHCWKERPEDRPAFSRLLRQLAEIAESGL
The experiment in a line: ITK IC50 kinase inhibition assay.

Assay [2] has as its target T2, JAK3 (Homo sapiens, UniProt P52333).
T2 sequence (P52333 1-1124): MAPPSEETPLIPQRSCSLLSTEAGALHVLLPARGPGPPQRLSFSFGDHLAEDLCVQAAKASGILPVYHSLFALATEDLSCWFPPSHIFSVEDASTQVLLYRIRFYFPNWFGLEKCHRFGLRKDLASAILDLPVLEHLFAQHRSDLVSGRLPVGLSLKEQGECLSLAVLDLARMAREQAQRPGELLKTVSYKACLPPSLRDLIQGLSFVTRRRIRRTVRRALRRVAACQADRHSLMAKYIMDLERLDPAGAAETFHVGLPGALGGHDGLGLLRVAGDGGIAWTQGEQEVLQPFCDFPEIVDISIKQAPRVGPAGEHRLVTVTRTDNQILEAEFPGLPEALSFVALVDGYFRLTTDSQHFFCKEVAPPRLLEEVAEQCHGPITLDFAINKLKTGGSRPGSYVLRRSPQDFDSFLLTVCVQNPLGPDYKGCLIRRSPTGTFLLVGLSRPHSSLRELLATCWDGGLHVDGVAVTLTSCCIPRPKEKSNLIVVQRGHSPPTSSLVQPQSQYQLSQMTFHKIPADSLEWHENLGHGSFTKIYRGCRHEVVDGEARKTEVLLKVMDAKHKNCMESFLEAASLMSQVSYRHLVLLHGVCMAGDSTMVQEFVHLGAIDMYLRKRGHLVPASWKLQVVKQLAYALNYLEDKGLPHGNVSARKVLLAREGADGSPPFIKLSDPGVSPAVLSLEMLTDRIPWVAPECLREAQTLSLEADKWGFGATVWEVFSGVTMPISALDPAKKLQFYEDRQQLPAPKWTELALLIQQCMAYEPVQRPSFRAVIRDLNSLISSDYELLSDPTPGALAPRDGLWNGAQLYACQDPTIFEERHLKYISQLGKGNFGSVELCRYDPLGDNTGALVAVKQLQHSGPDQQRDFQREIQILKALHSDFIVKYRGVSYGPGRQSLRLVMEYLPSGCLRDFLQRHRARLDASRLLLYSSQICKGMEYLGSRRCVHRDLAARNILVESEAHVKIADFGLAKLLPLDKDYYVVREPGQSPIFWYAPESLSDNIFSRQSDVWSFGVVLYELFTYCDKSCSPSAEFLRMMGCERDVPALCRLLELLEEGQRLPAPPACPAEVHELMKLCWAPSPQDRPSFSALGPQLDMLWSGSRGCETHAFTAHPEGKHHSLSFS
Kind of assay: JAK3 IC50 kinase inhibition assay.

Assay [3] has as its target BTK (Homo sapiens, UniProt Q06187). The experiment in a line: BTK IC50 kinase inhibition assay.
Assay [4] deals with T3, TXK (Homo sapiens, UniProt P42681).
T3 sequence (P42681 1-527): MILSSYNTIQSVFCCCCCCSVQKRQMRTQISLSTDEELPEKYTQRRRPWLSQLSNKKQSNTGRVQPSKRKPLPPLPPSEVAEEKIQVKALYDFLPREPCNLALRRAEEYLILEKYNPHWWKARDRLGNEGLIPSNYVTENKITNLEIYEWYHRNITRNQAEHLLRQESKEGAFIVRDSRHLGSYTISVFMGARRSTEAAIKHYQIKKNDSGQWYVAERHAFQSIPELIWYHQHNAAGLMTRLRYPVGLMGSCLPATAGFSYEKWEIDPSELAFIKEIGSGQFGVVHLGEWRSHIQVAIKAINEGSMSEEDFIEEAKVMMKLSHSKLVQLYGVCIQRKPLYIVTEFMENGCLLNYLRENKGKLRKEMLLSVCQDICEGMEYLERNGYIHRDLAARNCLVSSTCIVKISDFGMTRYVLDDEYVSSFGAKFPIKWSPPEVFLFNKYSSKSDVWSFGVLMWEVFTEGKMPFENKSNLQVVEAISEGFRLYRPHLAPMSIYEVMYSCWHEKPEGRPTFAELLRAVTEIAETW
Kind of assay: TXK IC50 kinase inhibition assay.

Sequence of BTK (Q06187 whole entry): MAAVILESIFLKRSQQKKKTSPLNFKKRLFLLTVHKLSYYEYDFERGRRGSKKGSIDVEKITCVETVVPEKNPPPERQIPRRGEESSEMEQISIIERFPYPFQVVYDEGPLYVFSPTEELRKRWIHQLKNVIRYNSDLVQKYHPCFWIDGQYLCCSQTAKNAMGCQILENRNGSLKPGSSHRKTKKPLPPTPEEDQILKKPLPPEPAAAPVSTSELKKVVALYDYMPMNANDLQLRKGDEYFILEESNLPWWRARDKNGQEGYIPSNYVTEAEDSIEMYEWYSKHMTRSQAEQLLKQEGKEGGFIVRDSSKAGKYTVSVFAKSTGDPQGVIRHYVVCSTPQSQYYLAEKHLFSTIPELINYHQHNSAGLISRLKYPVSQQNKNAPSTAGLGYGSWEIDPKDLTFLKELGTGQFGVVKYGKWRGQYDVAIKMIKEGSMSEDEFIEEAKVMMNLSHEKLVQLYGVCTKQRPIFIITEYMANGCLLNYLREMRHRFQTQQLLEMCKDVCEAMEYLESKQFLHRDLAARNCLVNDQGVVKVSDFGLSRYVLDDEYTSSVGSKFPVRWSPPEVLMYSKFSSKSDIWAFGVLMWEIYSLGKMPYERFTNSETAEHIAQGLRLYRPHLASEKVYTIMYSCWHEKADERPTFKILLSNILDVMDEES

`C=CC(=O)N1CCC[C@H]1Cn1nc(-c2ccc(Oc3ccccc3)cc2F)c2cncnc21` [Compound A19, (S)-1-(2-((3-(2-fluoro-4-phenoxyphenyl)-1H-pyrazolo[3,4-d]pyrimidin-1-yl)methyl)pyrrolidin-1-yl)prop-2-en-1-one]: the 50% inhibitory concentration (IC50) in assay [1] was more than 0.5 µM; in assay [2], more than 0.5 µM; in assay [3], less than 0.1 µM; in assay [4] it was less than 0.1 µM.
In the case of `CC#CC(=O)N1CCC[C@H]1Cn1nc(-c2ccc(Oc3ccccc3)cc2F)c2cncnc21` [Compound A20, (S)-1-(2-((3-(2-fluoro-4-phenoxyphenyl)-1H-pyrazolo[3,4-d]pyrimidin-1-yl)methyl)pyrrolidin-1-yl)but-2-yn-1-one], the IC50 was more than 0.5 µM in assay [1], more than 0.5 µM in assay [2], less than 0.1 µM in assay [3] and more than 0.5 µM in assay [4].
For `C=C(C)C(=O)N1CCC[C@@H](n2nc(-c3ccc(Oc4ccccc4)cc3)c3cncnc32)C1` [Compound A21, (R)-2-methyl-1-(3-(3-(4-phenoxyphenyl)-1H-pyrazolo[3,4-d]pyrimidin-1-yl)piperidin-1-yl)prop-2-en-1-one], the IC50 in assay [1], in assay [2], in assay [3] and in assay [4] was more than 0.5 µM throughout.
Turning to `C=CC(=O)N1CCC[C@H]1Cn1nc(-c2ccc(Oc3ccccc3)cc2)c2cnccc21` [Compound A22, (S)-1-(2-((3-(4-phenoxyphenyl)-1H-pyrazolo[4,3-c]pyridin-1-yl)methyl)pyrrolidin-1-yl)prop-2-en-1-one], the IC50 is more than 0.5 µM in assay [1], more than 0.5 µM in assay [2], less than 0.1 µM in assay [3] and less than 0.1 µM in assay [4].
For `C=CC(=O)N1CCC[C@@H](n2nc(-c3ccc(Oc4ccccc4)cc3)c3cnccc32)C1` [Compound A23, (R)-1-(3-(3-(4-phenoxyphenyl)-H-pyrazolo[4,3-c]pyridin-1-yl)piperidin-1-yl)prop-2-en-1-one], the IC50 in assay [1] was more than 0.5 µM; in assay [2], more than 0.5 µM; in assay [3], less than 0.1 µM; in assay [4], less than 0.1 µM.
As for `C=CC(=O)N1CCC[C@@H](n2nc(-c3ccc(Oc4ccccc4)cc3F)c3cnccc32)C1` [Compound A24, (R)-1-(3-(3-(2-fluoro-4-phenoxyphenyl)-1H-pyrazolo[4,3-c]pyridin-1-yl)piperidin-1-yl)prop-2-en-1-one], the IC50 in assay [1] is more than 0.5 µM; in assay [2] it was more than 0.5 µM; in assay [3], less than 0.1 µM; in assay [4], less than 0.1 µM.
With `CN(C)C/C=C/C(=O)N1CC[C@@H](n2nc(-c3ccc(Oc4ccccc4)cc3)c3cncnc32)C1` [Compound A25], the IC50 in assay [1] is more than 0.5 µM; in assay [2] it was more than 0.5 µM; in assay [3], less than 0.1 µM; in assay [4] it was more than 0.5 µM.
Consider `C=CC(=O)N1CCC[C@@H](n2nc(-c3ccc(Oc4ccccc4)cc3)c3cncc(F)c32)C1` [Compound A26, (R)-1-(3-(7-fluoro-3-(4-phenoxyphenyl)-1H-pyrazolo[4,3-c]pyridin-1-yl)piperidin-1-yl)prop-2-en-1-one], for which the IC50 was more than 0.5 µM in assay [1], more than 0.5 µM in assay [2], less than 0.1 µM in assay [3] and less than 0.1 µM in assay [4].
Consider `C=CC(=O)N1CCC[C@H]1Cn1nc(-c2ccc(Oc3ccccc3)cc2)c2cncc(F)c21` [Compound A27, (S)-1-(2-((7-fluoro-3-(4-phenoxyphenyl)-1H-pyrazolo[4,3-c]pyridin-1-yl)methyl)pyrrolidin-1-yl)prop-2-en-1-one], for which the concentration for half-maximal inhibition (IC50) in assay [1] is more than 0.5 µM; in assay [2], more than 0.5 µM; in assay [3] it was less than 0.1 µM; in assay [4] it was less than 0.1 µM.
With `C=CC(=O)N1CCC[C@@H](c2nc(-c3ccc(Oc4ccccc4)cc3)c3cnccn23)C1` [Compound A28, (R)-1-(3-(1-(4-phenoxyphenyl)imidazo[1,5-a]pyrazin-3-yl)piperidin-1-yl)prop-2-en-1-one], the IC50 was more than 0.5 µM in assay [1], more than 0.5 µM in assay [2], less than 0.1 µM in assay [3] and less than 0.1 µM in assay [4].
Take `C=CC(=O)N1CCC[C@H]1c1nc(-c2ccc(Oc3ccccc3)cc2)c2cnccn12` [Compound A29, (S)-1-(2-(1-(4-phenoxyphenyl)imidazo[1,5-a]pyrazin-3-yl)pyrrolidin-1-yl)prop-2-en-1-one]: the 50% inhibitory concentration (IC50) is more than 0.5 µM in assay [1], more than 0.5 µM in assay [2], less than 0.1 µM in assay [3] and 0.1 to 0.5 µM in assay [4].
Turning to `C=CC(=O)N1CC[C@@H](c2nc(-c3ccc(Oc4ccccc4)cc3)c3cnccn23)C1` [Compound A30, (R)-1-(3-(1-(4-phenoxyphenyl)imidazo[1,5-a]pyrazin-3-yl)pyrrolidin-1-yl)prop-2-en-1-one], the half-inhibitory concentration (IC50) in assay [1] is more than 0.5 µM; in assay [2], more than 0.5 µM; in assay [3] it was less than 0.1 µM; in assay [4], less than 0.1 µM.
`CC#CC(=O)N1CCC[C@H]1c1nc(-c2ccc(Oc3ccccc3)cc2)c2cnccn12` [Compound A31, (S)-1-(2-(1-(4-phenoxyphenyl)imidazo[1,5-a]pyrazin-3-yl)pyrrolidin-1-yl)but-2-yn-1-one]: the IC50 in assay [1], in assay [2], in assay [3] and in assay [4] was more than 0.5 µM in each case.
For `CC#CC(=O)N1CC[C@@H](c2nc(-c3ccc(Oc4ccccc4)cc3)c3cnccn23)C1` [Compound A32, (R)-1-(3-(1-(4-phenoxyphenyl)imidazo[1,5-a]pyrazin-3-yl)pyrrolidin-1-yl)but-2-yn-1-one], the IC50 is more than 0.5 µM in assay [1], more than 0.5 µM in assay [2], less than 0.1 µM in assay [3] and 0.1 to 0.5 µM in assay [4].
As to `C=CC(=O)N1CCC[C@@H](n2nc(-c3ccc(Oc4ccccc4)cc3C#N)c3cncnc32)C1` [Compound A33, (R)-2-(1-(1-acryloylpiperidin-3-yl)-H-pyrazolo[3,4-d]pyrimidin-3-yl)-5-phenoxybenzonitrile], the half-inhibitory concentration (IC50) in assay [1] was more than 0.5 µM; in assay [2], more than 0.5 µM; in assay [3] it was 0.1 to 0.5 µM; in assay [4], more than 0.5 µM.
Consider `C=CC(=O)N1CCC(Cn2nc(-c3ccc(Oc4ccccc4)cc3)c3cncnc32)CC1` [Compound A34, 1-(4-((3-(4-phenoxyphenyl)-1H-pyrazolo[3,4-d]pyrimidin-1-yl)methyl)piperidin-1-yl)prop-2-en-1-one], for which the IC50 in assay [1] was more than 0.5 µM; in assay [2] it was more than 0.5 µM; in assay [3], less than 0.1 µM; in assay [4], more than 0.5 µM.
